The subject of experiment [1] is murine bone marrow-derived macrophages. The experiment is described as follows: area under cytotoxicity dose-response curve (AUC (% cytotoxicity x dose, relative)); higher = more cytotoxic. The conditions noted are these: duration: 6 days; dose range: 0.13-80 uM, 8 points. The gist of the method: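 Primary murine bone marrow-derived macrophages in opaque 384-well plates were exposed to an 8-point, 2.5-fold dilution series (final 80–0.13 μM) for 6 days at 37 °C in 5% CO2. Viability was read with Promega's CellTiter-Glo luminescence assay, and percent cytotoxicity was normalised to vehicle and positive control wells. Cytotoxicity is reported as the area under the dose–response curve, calculated in GraphPad Prism version 10.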

In experiment [2] the test system is Mycobacterium tuberculosis CDC1551 (intracellular, in murine BMDM). The experiment is described as follows: area under intracellular growth-inhibition dose-response curve (AUC (% inhibition x dose, relative)); higher = more potent. The conditions noted are these: duration: 6 days; dose range: 0.13-80 uM, 8 points. The gist of the method:
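Macrophages derived from primary murine bone marrow were infected for 1 h at multiplicity of infection 1 with luciferase-expressing M. tuberculosis CDC1551, then treated for 6 days at final concentrations of 80–0.13 μM. Bright-Glo luciferin signal, normalised to a reference drug control and the lowest-concentration wells, gave the growth readout. Area under the growth-inhibition dose–response curve was then calculated in GraphPad Prism.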

Bounds are passed on as bounds.

Regarding `O=C(NCC1CCCO1)c1csc2c1CCCCC2` (stereo unspecified), the “area under cytotoxicity dose-response curve” value in experiment [1] was found to be 19.4. Moreover, the “area under intracellular growth-inhibition dose-response curve” value in experiment [2] was 143.
On the same counts, the results for `CC(=O)OCC1=C(C(=O)O)N2C(=O)[C@@H](NC(=O)CSc3ccncc3)[C@H]2SC1.[Na+]` are 52.5 and 114.
On the same counts, the results for `Cc1ccc(C(=O)N2CCN(c3ccc(NC(=S)NC(=O)c4cccs4)cc3)CC2)cc1` are less than 0 and 275.
On the same counts, the results for `CCOc1ccc(/C=N/n2cc(-c3ccccc3)nc2S)cc1` are less than 0 and 265.
Take `O=C(Nc1ccn(Cc2ccccc2)n1)c1ccc2c(c1)OCO2`: the “area under cytotoxicity dose-response curve” value in experiment [1] was 62.2. Besides, in experiment [2], the “area under intracellular growth-inhibition dose-response curve” value stood at 121.
On the same counts, the results for `CCn1nc(C(=O)Nc2cccc(S(=O)(=O)N3CCCC3)c2)c2ccccc2c1=O` are 101 and 55.2.
For `Cc1cc(Cl)ccc1NC(=S)NCC(O)c1ccccc1` (stereo unspecified) the same measures were 76.6 and 126.
For `Nc1ccc(C(=O)[O-])c(O)c1.[Na+]` the same measures were 27.5 and 182.
`CCOc1ccc(C(=O)Nc2ccc(NC(=S)NC(=O)CC)cc2)cc1Cl`: the “area under cytotoxicity dose-response curve” value in experiment [1] was less than 0. Further, the “area under intracellular growth-inhibition dose-response curve” value in experiment [2] was 179.
On to `CCC(=O)N1CCN(c2ccc(NC(=O)c3ccc([N+](=O)[O-])o3)cc2)CC1`, for which the “area under cytotoxicity dose-response curve” value in experiment [1] was 3.32. Further, in experiment [2], the “area under intracellular growth-inhibition dose-response curve” value amounted to 47.9.
On the same counts, the results for `O=C(C1COc2ccccc2O1)N1CCCCC1` (stereo unspecified) are 76 and 236.
In the case of `O=C(COC(=O)c1ccccc1O)NC1CCCc2ccccc21` (stereo unspecified), the “area under cytotoxicity dose-response curve” value in experiment [1] was less than 0. Moreover, the “area under intracellular growth-inhibition dose-response curve” value in experiment [2] is 126.
For `Clc1ccc2nnc(Cl)n2n1` the same measures were 54 and 79.4.
As to `Cc1occc1C(=O)N/N=C/C=C/c1ccccc1`, the “area under cytotoxicity dose-response curve” value in experiment [1] was found to be 60. In addition, the “area under intracellular growth-inhibition dose-response curve” value in experiment [2] was 87.6.
For `O=c1cc(-c2c(F)c(F)c(F)c(F)c2F)oc2ccccc12` the same measures were 11.4 and 122.
On the same counts, the results for `O=C(CCCOc1ccc(Br)cc1)NNC(=O)c1ccncc1` are 24.1 and 256.
For `CC[C@@H](C)[C@H](CNC)NC[C@@H](Cc1cccc2ccccc12)NCCc1cccc(C(F)(F)F)c1` the same measures were 117 and 144.
As for `O=[N+]([O-])c1ccc(CN2CCN(c3ccccc3Cl)CC2)o1`, the “area under cytotoxicity dose-response curve” value in experiment [1] turned out to be 63.5. For the same molecule, the “area under intracellular growth-inhibition dose-response curve” value in experiment [2] turned out to be 123.
Take `COC(=O)C(C)NC(=S)N1CCN(c2c(F)cc3c(=O)c(C(=O)O)cn(C4CC4)c3c2OC)CC1C` (stereo unspecified): in experiment [1], the “area under cytotoxicity dose-response curve” value is 23.4. Moreover, the “area under intracellular growth-inhibition dose-response curve” value in experiment [2] was 90.
On the same counts, the results for `Cc1ccc(/C=N/NC(=O)c2ccncc2)o1` are 78.6 and 213.
For `C/C(=N\NC(N)=S)c1ccncc1` the same measures were 113 and 138.
On the same counts, the results for `CNc1nc(SC)nc2ccccc12` are 77.9 and 242.
For the molecule `CN(C)CCSc1nc2cc(S(=O)(=O)N3CCCCC3)ccc2o1`, the “area under cytotoxicity dose-response curve” value in experiment [1] stood at 11.5. Also, in experiment [2], the “area under intracellular growth-inhibition dose-response curve” value worked out at 1.9.

The values above are taken from the supplement of paper PMC11997997.
